Experimental data: PubChem BioAssay AID322 (DTP/NCI, 2004)
Several values for one entry are separate records, joined by “and”; a condition that tells them apart may be missing. Equal entries are not always repeated. Inconclusive results and toxic doses are left out.

Tested on: CD2F1 mice, P388/ADR leukemia ip, median survival T/C
Assay: NCI In Vivo Anticancer Drug Screen. Data for tumor model P388 Leukemia resistant to Adriamycin; NSC 123127, Developed at Scr 08 (intraperitoneal) in CD2F1 (CDF1) mice
Details: endpoint: median survival time, higher = longer survival
Protocol: The antitumor activity of compounds was measured in mice bearing transplantable tumors. Survival or tumor size were measured and the results are expressed as the measurement made in the treated group (T) divided by the measurement made in the vehicle treated control group (C). The tumor model used in this assay is P388 Leukemia resistant to Adriamycin; NSC 123127, Developed at Scr 08 (intraperitoneal) in CD2F1 (CDF1) mice

[1] = dose: 25.0 mg/kg/injection, schedule: Q01DX005 (ip), vehicle: Klucel (hydroxypropylcellulose) (HPC)
[2] = dose: 50.0 mg/kg/injection, schedule: Q01DX005 (ip), vehicle: Klucel (hydroxypropylcellulose) (HPC)
[3] = dose: 100.0 mg/kg/injection, schedule: Q01DX005 (ip), vehicle: Klucel (hydroxypropylcellulose) (HPC)

In the case of `O=NNc1cnccn1`, the T/C (dose: 11.0 mg/kg/injection, schedule: Q01DX009 (ip), vehicle: water) is reported as 165 % of control and 171 % of control, the T/C (dose: 17.0 mg/kg/injection, schedule: Q01DX009 (ip), vehicle: water) is reported as 201 % of control and 206 % of control and the T/C (dose: 25.0 mg/kg/injection, schedule: Q01DX009 (ip), vehicle: water) is reported as 240 % of control and 246 % of control. The T/C (dose: 37.5 mg/kg/injection, schedule: Q01DX009 (ip), vehicle: water) was 277 % of control and 313 % of control and the T/C (dose: 56.0 mg/kg/injection, schedule: Q01DX009 (ip), vehicle: water) was 107 % of control and 117 % of control.

`CC[C@]1(O)C[C@H]2CN(CCc3c([nH]c4ccccc34)[C@@](C(=O)OC)(c3cc4c(cc3OC)N(C=O)[C@H]3[C@@](O)(C(=O)OC)[C@H](OC(C)=O)[C@]5(CC)C=CCN6CC[C@]43[C@@H]65)C2)C1` was tested, and the T/C (dose: 0.43 mg/kg/injection, schedule: Q04DX002 (ip), vehicle: saline) was 109 % of control, the T/C (dose: 0.72 mg/kg/injection, schedule: Q04DX002 (ip), vehicle: saline) was 111 % of control and the T/C (dose: 1.2 mg/kg/injection, schedule: Q04DX002 (ip), vehicle: saline) was 109 % of control. The T/C (dose: 2.0 mg/kg/injection, schedule: Q04DX002 (ip), vehicle: saline) was 103 % of control and the T/C (dose: 3.33 mg/kg/injection, schedule: Q04DX002 (ip), vehicle: saline) was 115 % of control.

In the case of `C=C1c2cccc(O)c2C(O)=C2C(=O)[C@]3(O)C(O)=C(C(N)=O)C(=O)[C@@H](N(C)C)[C@@H]3[C@@H](O)[C@H]12`, the T/C (dose: 21.6 mg/kg/injection, schedule: Q01DX005 (ip), vehicle: Klucel (hydroxypropylcellulose) (HPC)) is reported as 114 % of control, the T/C [1] is reported as 109 % of control and the T/C (dose: 36.0 mg/kg/injection, schedule: Q01DX005 (ip), vehicle: Klucel (hydroxypropylcellulose) (HPC)) is reported as 97 % of control and 100 % of control. For the same compound, the T/C [2] was 118 % of control, the T/C (dose: 60.0 mg/kg/injection, schedule: Q01DX005 (ip), vehicle: Klucel (hydroxypropylcellulose) (HPC)) was 226 % of control and 100 % of control and the T/C [3] was 99 % of control and 112 % of control. The T/C (dose: 166.66 mg/kg/injection, schedule: Q01DX005 (ip), vehicle: Klucel (hydroxypropylcellulose) (HPC)) was 117 % of control and the T/C (dose: 200.0 mg/kg/injection, schedule: Q01DX005 (ip), vehicle: Klucel (hydroxypropylcellulose) (HPC)) was 119 % of control.

For `CCOc1ccc(-c2nc3ccc(-c4nc5ccc(N6CCN(C)CC6)cc5[nH]4)cc3[nH]2)cc1`, the T/C (dose: 1.56 mg/kg/injection, schedule: Q01DX005 (ip), vehicle: water) was 109 % of control, the T/C (dose: 3.12 mg/kg/injection, schedule: Q01DX005 (ip), vehicle: water) was 106 % of control and the T/C (dose: 6.25 mg/kg/injection, schedule: Q01DX005 (ip), vehicle: water) was 107 % of control. The T/C (dose: 12.5 mg/kg/injection, schedule: Q01DX005 (ip), vehicle: water) was 91 % of control.

With `CO[C@H](/C(C)=C/C=C/C(C)=C/c1coc(C)n1)[C@H](C)[C@H]1C[C@@H](O)[C@@]2(C)O[C@H]2/C=C/[C@@H](C)[C@@H]2C[C@@H](CC(=O)O2)C[C@H]2O[C@@H]2C(=O)O1` the T/C (dose: 0.04 mg/kg/injection, schedule: Q01DX005 (ip), vehicle: Klucel (hydroxypropylcellulose) (HPC)) was 105 % of control, the T/C (dose: 0.06 mg/kg/injection, schedule: Q01DX005 (ip), vehicle: Klucel (hydroxypropylcellulose) (HPC)) was 109 % of control and 113 % of control and the T/C (dose: 0.08 mg/kg/injection, schedule: Q01DX005 (ip), vehicle: Klucel (hydroxypropylcellulose) (HPC)) was 114 % of control. For the same compound, the T/C (dose: 0.09 mg/kg/injection, schedule: Q01DX005 (ip), vehicle: Klucel (hydroxypropylcellulose) (HPC)) was 112 % of control, the T/C (dose: 0.1 mg/kg/injection, schedule: Q01DX005 (ip), vehicle: Klucel (hydroxypropylcellulose) (HPC)) was 117 % of control and the T/C (dose: 0.12 mg/kg/injection, schedule: Q01DX005 (ip), vehicle: Klucel (hydroxypropylcellulose) (HPC)) was 97 % of control. For the same compound, the T/C (dose: 0.13 mg/kg/injection, schedule: Q01DX005 (ip), vehicle: Klucel (hydroxypropylcellulose) (HPC)) was 109 % of control, the T/C (dose: 0.14 mg/kg/injection, schedule: Q01DX005 (ip), vehicle: Klucel (hydroxypropylcellulose) (HPC)) was 96 % of control and the T/C (dose: 0.16 mg/kg/injection, schedule: Q01DX005 (ip), vehicle: Klucel (hydroxypropylcellulose) (HPC)) was 107 % of control. The T/C (dose: 0.2 mg/kg/injection, schedule: Q01DX005 (ip), vehicle: Klucel (hydroxypropylcellulose) (HPC)) was 102 % of control.

`[CH3][Sn]([CH3])([Cl])[c]1cc[c]([Sn]([CH3])([CH3])[Cl])cc1` was tested, and the T/C (dose: 0.19 mg/kg/injection, schedule: Q01DX005 (ip), vehicle: suspension in saline) was 96 % of control, the T/C (dose: 0.39 mg/kg/injection, schedule: Q01DX005 (ip), vehicle: suspension in saline) was 105 % of control and the T/C (dose: 0.78 mg/kg/injection, schedule: Q01DX005 (ip), vehicle: suspension in saline) was 114 % of control. For the same compound, the T/C (dose: 1.56 mg/kg/injection, schedule: Q01DX005 (ip), vehicle: suspension in saline) was 114 % of control.

For `OC(CBr)C(O)C(O)C(O)CBr` (stereo not drawn), the T/C (dose: 30.0 mg/kg/injection, schedule: Q01DX009 (ip), vehicle: Klucel (hydroxypropylcellulose) (HPC)) was 162 % of control.

For `CC[C@@]1(O)CC(OC2CC(N3CCOCC3)C(O)C(C)O2)c2c(O)c3c(c(O)c2[C@H]1O)C(=O)c1cccc(O)c1C3=O` (stereo partly drawn), the T/C (dose: 3.0 mg/kg/injection, schedule: Q04DX003 (iv), vehicle: saline) was 160 % of control.

With `O=C1C=CC2OC(c3ccccc3)C(O)C2O1` (stereo not drawn) the T/C (dose: 6.25 mg/kg/injection, schedule: Q01DX005 (ip), vehicle: saline with Tween-80) was 101 % of control, the T/C (dose: 12.5 mg/kg/injection, schedule: Q01DX005 (ip), vehicle: saline with Tween-80) was 114 % of control and the T/C (dose: 50.0 mg/kg/injection, schedule: Q01DX005 (ip), vehicle: saline with Tween-80) was 119 % of control.

With `CC[C@@]1(O)C(=O)OCc2c1cc1n(c2=O)Cc2cc3ccccc3nc2-1` the T/C (dose: 1.5 mg/kg/injection, schedule: Q01DX005 (ip), vehicle: saline with Tween-80) was 161 % of control, the T/C (dose: 2.1 mg/kg/injection, schedule: Q01DX005 (ip), vehicle: saline with Tween-80) was 223 % of control and the T/C (dose: 3.0 mg/kg/injection, schedule: Q01DX005 (ip), vehicle: saline with Tween-80) was 200 % of control. For the same compound, the T/C (dose: 3.6 mg/kg/injection, schedule: Q01DX005 (ip), vehicle: saline with Tween-80) was 222 % of control, the T/C (dose: 6.0 mg/kg/injection, schedule: Q01DX005 (ip), vehicle: saline with Tween-80) was 216 % of control and the T/C (dose: 6.7 mg/kg/injection, schedule: Q04DX002 (ip), vehicle: saline with Tween-80) was 198 % of control and 232 % of control. For the same compound, the T/C (dose: 10.0 mg/kg/injection, schedule: Q04DX002 (ip), vehicle: saline with Tween-80) was 207 % of control and 232 % of control and the T/C (dose: 15.0 mg/kg/injection, schedule: Q04DX002 (ip), vehicle: saline with Tween-80) was 215 % of control and 236 % of control.

`CCOC1NC(=O)Oc2ccccc21` (stereo not drawn) was tested, and the T/C (dose: 3.12 mg/kg/injection, schedule: Q01DX005 (ip), vehicle: Klucel (hydroxypropylcellulose) (HPC)) was 101 % of control, the T/C (dose: 6.25 mg/kg/injection, schedule: Q01DX005 (ip), vehicle: Klucel (hydroxypropylcellulose) (HPC)) was 100 % of control and the T/C (dose: 12.5 mg/kg/injection, schedule: Q01DX005 (ip), vehicle: Klucel (hydroxypropylcellulose) (HPC)) was 94 % of control. For the same compound, the T/C [1] was 87 % of control and 101 % of control and 104 % of control, the T/C [2] was 88 % of control and 110 % of control and the T/C (dose: 72.0 mg/kg/injection, schedule: Q01DX005 (ip), vehicle: Klucel (hydroxypropylcellulose) (HPC)) was 108 % of control. For the same compound, the T/C [3] was 104 % of control and 118 % of control, the T/C (dose: 120.0 mg/kg/injection, schedule: Q01DX005 (ip), vehicle: Klucel (hydroxypropylcellulose) (HPC)) was 116 % of control and the T/C (dose: 333.0 mg/kg/injection, schedule: Q01DX005 (ip), vehicle: Klucel (hydroxypropylcellulose) (HPC)) was 153 % of control.

With `CSC1SCC2C(=O)N(C)C(C(C)C)C(=O)OCC(NC(=O)c3cnc4ccccc4n3)C(=O)NC(C)C(=O)N(C)C1C(=O)N(C)C(C(C)C)C(=O)OCC(NC(=O)c1cnc3ccccc3n1)C(=O)NC(C)C(=O)N2C` (stereo not drawn) the T/C (dose: 44.0 micrograms/kg/injection, schedule: Q01DX005 (ip), vehicle: saline) was 152 % of control, the T/C (dose: 100.0 micrograms/kg/injection, schedule: Q01DX005 (ip), vehicle: saline) was 151 % of control and the T/C (dose: 150.0 micrograms/kg/injection, schedule: Q01DX005 (ip), vehicle: saline) was 152 % of control.

In the case of `CC[C@]1(O)C[C@H]2CN(CCc3c([nH]c4ccccc34)[C@@](C(=O)OC)(c3cc4c(cc3OC)N(C)[C@H]3[C@@](O)(C(=O)OC)[C@H](OC(C)=O)[C@]5(CC)C=CCN6CC[C@]43[C@@H]65)C2)C1`, the T/C (dose: 0.5 mg/kg/injection, schedule: Q04DX003 (ip), vehicle: saline) is reported as 101 % of control, the T/C (dose: 1.0 mg/kg/injection, schedule: Q04DX003 (ip), vehicle: saline) is reported as 100 % of control and the T/C (dose: 2.0 mg/kg/injection, schedule: Q04DX003 (ip), vehicle: saline) is reported as 100 % of control. The T/C (dose: 4.0 mg/kg/injection, schedule: Q04DX003 (ip), vehicle: saline) was 83 % of control and the T/C (dose: 8.0 mg/kg/injection, schedule: Q04DX003 (ip), vehicle: saline) was 57 % of control.

With `COc1nc(C(Cl)(Cl)Cl)c(Cl)c(OC)c1Cl` the T/C [2] was 114 % of control and the T/C (dose: 90.0 mg/kg/injection, schedule: Q01DX005 (ip), vehicle: Klucel (hydroxypropylcellulose) (HPC)) was 124 % of control.
